# From patent US7307063B2, “Melanocortin metallopeptides for treatment of sexual dysfunction” (Palatin Technologies, Inc., priority 2001, dated 2007)
# Several values for one entry are separate records, joined by “and”; a condition that tells them apart may be missing. Equal values may be shown once. Non-standard residues stand in square brackets, D forms with d. No end group written: not given here. *: point of attachment. Phenylacetyl(4-Ph) = O=C(Cc1ccc(-c2ccccc2)cc1)*; Bip = N[C@@H](Cc1ccc(-c2ccccc2)cc1)C(=O)O; dDip = N[C@@H](C(=O)O)C(c1ccccc1)c1ccccc1; 1Nal = N[C@@H](Cc1cccc2ccccc12)C(=O)O; Desaminotyrosyl = O=C(CCc1ccc(O)cc1)*; Hydrocinnamoyl = O=C(CCc1ccccc1)*; d(pGlu) = O=C1CC[C@H](C(=O)O)N1; code Z = not defined here; 4‑Amc = not defined here; Nle = CCCC[C@H](N)C(=O)O
# Tests used:
# MC1-R = molecular target: T1, MC1-R (Mus musculus, UniProt Q01727); assay: Competitive binding assay: inhibition of 125I-NDP-α-MSH binding to membranes from B16-F10 mouse melanoma cells; conditions: Table 6; 1 μM; mean of triplicate
# T1 construct: MC1-R membranes were isolated from B16—F10 mouse melanoma cells; endogenous in cells; host or cells: B16-F10 mouse melanoma cells
# T1 sequence (Q01727 whole entry): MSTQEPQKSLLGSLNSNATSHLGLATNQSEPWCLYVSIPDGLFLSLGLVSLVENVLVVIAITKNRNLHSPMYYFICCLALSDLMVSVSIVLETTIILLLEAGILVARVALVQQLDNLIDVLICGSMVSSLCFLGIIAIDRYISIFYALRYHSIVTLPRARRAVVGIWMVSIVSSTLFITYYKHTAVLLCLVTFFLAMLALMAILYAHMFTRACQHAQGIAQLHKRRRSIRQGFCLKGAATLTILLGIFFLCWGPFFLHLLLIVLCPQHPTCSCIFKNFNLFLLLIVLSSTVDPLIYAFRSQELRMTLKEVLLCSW
# In short: (§1)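 Rhenium-complexed test peptides at a chosen concentration were assayed for inhibition of 125I-NDP-α-MSH binding to receptor membranes (HEK-293 for cloned human subtypes; B16-F10 cells for MC1-R). Non-specific binding was defined with 1 μM α-MSH, and cpm were normalized to specific binding to give percent inhibition.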
# MC4-R = molecular target: T2, MC4-R (Homo sapiens, UniProt P32245); assay: Competitive binding assay: inhibition of 125I-NDP-α-MSH binding to HEK-293 membranes with cloned human receptor subtype 4; conditions: Table 6; 1 μM; mean of triplicate
# T2 construct: expressed in transfected cells; host or cells: HEK-293
# T2 sequence (P32245 whole entry): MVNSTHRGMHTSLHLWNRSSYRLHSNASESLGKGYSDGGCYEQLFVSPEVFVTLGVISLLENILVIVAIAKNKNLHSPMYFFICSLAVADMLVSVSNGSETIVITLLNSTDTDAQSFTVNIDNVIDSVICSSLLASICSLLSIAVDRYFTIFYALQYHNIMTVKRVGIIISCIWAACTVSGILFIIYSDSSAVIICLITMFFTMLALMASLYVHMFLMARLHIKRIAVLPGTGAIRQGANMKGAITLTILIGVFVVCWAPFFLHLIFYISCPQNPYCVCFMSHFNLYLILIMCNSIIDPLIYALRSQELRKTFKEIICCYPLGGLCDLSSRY
# In short: as §1
# hMC5-R = molecular target: T3, hMC5-R (Homo sapiens, UniProt P33032); assay: Competitive binding assay: inhibition of 125I-NDP-α-MSH binding to HEK-293 membranes with cloned human receptor subtype 5; conditions: Table 6; 1 μM; mean of triplicate
# T3 construct: expressed in transfected cells; host or cells: HEK-293
# T3 sequence (P33032 whole entry): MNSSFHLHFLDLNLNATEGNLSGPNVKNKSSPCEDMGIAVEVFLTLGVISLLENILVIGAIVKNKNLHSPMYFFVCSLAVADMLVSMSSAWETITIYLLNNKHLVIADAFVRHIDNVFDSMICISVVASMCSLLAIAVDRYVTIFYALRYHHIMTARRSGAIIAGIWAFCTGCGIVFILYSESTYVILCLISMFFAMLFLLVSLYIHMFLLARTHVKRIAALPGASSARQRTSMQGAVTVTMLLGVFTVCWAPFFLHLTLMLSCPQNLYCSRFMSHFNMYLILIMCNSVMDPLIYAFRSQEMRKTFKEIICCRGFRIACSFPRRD
# Protocol: Rhenium-complexed metallopeptides of the formulas given in Table 1 were prepared, with the metallopeptides complexed with rhenium using the rhenium transfer agent ReOCl3(PPh3)2 in the presence of 1,8-Diazabicyclo[5,4,0] undec-7-ene as a base, as disclosed in International Application PCT/US00/16396, filed Jun. 14, 2000, Melanocortin Metallopeptide Constructs, Combinatorial Libraries and Applications, incorporated by reference herein. Affinities of compounds were measured using membranes from HEK-293 cells containing cloned human melanocortin receptor subtypes 3, 4 and 5. MC1-R membranes were isolated from B16—F10 mouse melanoma cells. The assay tube also contained a chosen concentration of the test peptide of this invention, complexed to a rhenium metal ion as indicated, for determining its efficacy in inhibiting the binding of ^125I-NDP-α-MSH to its receptor. Non-specific binding was measured by complete inhibition of binding of ^125I-NDP-α-MSH in the assay with the presence of 1 μM α-MSH. 100% specific binding was defined as the difference in radioactivity (cpm) bound to cell membranes in the absence and presence of 1 μM α-MSH. The cpm obtained in presence of test compounds were normalized with respect to 100% specific binding to determine the percent inhibition of ^125I-NDP-α-MSH binding.
# Peptide sequences set forth in Table 6 were prepared using conventional synthetic means. The resulting sequences were rhenium-complexed to form metallopeptides, with the metallopeptides complexed with rhenium using the rhenium transfer agent ReOCl3(PPh3)2 in the presence of 1,8-Diazabicyclo[5,4,0] undec-7-ene as a base. Percent inhibition was determined as in Example 1 using the Re-complexed metallopeptides, using the same methods as described therein. All measures are means of triplicate determinations.
# hMC2-R = molecular target: T4, hMC2-R (Homo sapiens, UniProt P41968); assay: Competitive binding assay of additional compounds, Table 6 hMC2-R; conditions: 1 μM, mean of triplicate
# T4 construct: expressed in transfected cells; host or cells: HEK-293
# T4 sequence (P41968 whole entry): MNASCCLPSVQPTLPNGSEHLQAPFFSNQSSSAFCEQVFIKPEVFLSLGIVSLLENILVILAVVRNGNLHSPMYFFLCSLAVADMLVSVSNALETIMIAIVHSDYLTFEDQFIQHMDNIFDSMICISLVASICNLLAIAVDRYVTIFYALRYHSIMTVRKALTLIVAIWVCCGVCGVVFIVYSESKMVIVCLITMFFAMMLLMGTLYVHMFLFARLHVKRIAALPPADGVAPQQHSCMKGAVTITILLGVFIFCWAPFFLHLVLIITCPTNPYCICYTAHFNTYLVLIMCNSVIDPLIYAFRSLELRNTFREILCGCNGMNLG
Substance,% Inhibition of Binding MC1-R (MC1-R),% Inhibition of Binding hMC4-R (MC4-R),% Inhibition of Binding hMC5-R (hMC5-R),% Inhibition of Binding hMC2-R (hMC2-R)
[Bip][dF]RWC-NH2,0%,19%,51%,0%
3′-(4′-Hydroxyphenyl)propionyl-HiS-D-Phe-Arg-Cys-Trp-NH2 (Desaminotyrosyl-H[dF]RCW-NH2; not fully specified; printed as 3′-(4′-Hydroxyphenyl)propionyl-HiS-D-Phe-Arg-Cys-Trp-NH2),76%,0%,21%,0%
Ac-Nle-Ala-Glu-D-Phe-Arg-Cys-Trp-NH2 (Ac-[Nle]AE[dF]RCW-NH2; not fully specified; printed as Ac-Nle-Ala-Glu-D-Phe-Arg-Cys-Trp-NH2),0%,12%,0%,3%
Ac-Nle-Ala-His-D-Phe-Arg-D-Nal 1′-Cys-NH2,93%,47%,5%,3%
Ac-[Nle]H[dF]RCW-NH2,77%,2%,28%,0%
D-Igl-D-Nal 2′-Arg-Trp-Cys-NH2,27%,97%,85%,73%
Idc-D-Phe-Arg-Cys-Trp-NH2,0%,4%,19%,0%
3′-Br Phenyl acetyl-Lys-Ala-D-Phe(2′-Cl)-Cys-Trp-NH2,9%,34%,44%,19%
Pro-D-Phe-Arg-Cys-Trp-NH2 (P[dF]RCW-NH2; also: metal complex),27%,2%,33%,0%
3′-Phenylpropionyl-His-D-Phe-Arg-Cys-Trp-NH2 (Hydrocinnamoyl-H[dF]RCW-NH2; not fully specified; printed as 3′-Phenylpropionyl-His-D-Phe-Arg-Cys-Trp-NH2),75%,16%,50%,2%
7-amino-haptanoyl-D-Igl-D-Phe-Arg-Cys-NH2,8%,10%,32%,0%
Aic-D-Phe-Arg-Cys-Trp-NH2,59%,21%,71%,0%
"Z-D-Pyr-D-Phe-Arg-Trp-Cys-NH2 ({code Z}-[d(pGlu)][dF]RWC-NH2; reading uncertain; also: metal complex, printed as Z-D-Pyr-D-Phe-Arg-Trp-Cys-NH2)",44%,46%,28%,16%
Nal 1′-D-Phe-Arg-Trp-Cys-NH2 ([1Nal][dF]RWC-NH2; also: metal complex),11%,15%,68%,3%
4-Amc-D-Phe-Arg-Trp-Cys-NH2 ({4‑Amc}-[dF]RWC-NH2; not fully specified; printed as 4-Amc-D-Phe-Arg-Trp-Cys-NH2; reading uncertain),51%,6%,6%,0%
Ac-[Nle]AT[dF]RCW-NH2,30%,11%,7%,8%
[dP][dF]RWC-NH2,1%,18%,35%,0%

Substance,% Inhibition of Binding MC1-R (MC1-R),% Inhibition of Binding hMC4-R (MC4-R),% Inhibition of Binding hMC5-R (hMC5-R),% Inhibition of Binding hMC2-R (hMC2-R)
Ac-Ala-Ala-His-D-Phe-Arg-Cys-Trp-NH2 ({Ac-Ala-Ala-H2N}-[dF]RCW-NH2; not fully specified; printed as Ac-Ala-Ala-His-D-Phe-Arg-Cys-Trp-NH2),76%,4%,17%,0%
Tic-D-Phe(4′-Cl)-His-Cys-NH2,15%,0%,37%,0%
Tic-D-Phe(4′-Cl)-Lys-Cys-NH2,16%,6%,84%,0%
Amc-D-Phe-Arg-Cys-Trp-NH2,7%,4%,8%,0%
Ac-[Nle]AW[dF]RCW-NH2,45%,9%,62%,0%
Hept-Ser(Bzl)-D-Phe(4′-Cl)-Arg-Trp-Cys-NH2,85%,88%,100%,85%
3′-Br Phenyl acetyl-Arg-Arg-D-Phe(4′-Me)-Cys-Trp-NH2,93% and 85%,98% and 82%,94%,86%
7-amino-haptanoyl-Ser(Bzl)-D-Nal 2′-Arg-Cys-NH2,3%,6%,34%,0%
D-Tiq-D-Phe-Arg-Trp-Cys-NH2,5%,34%,23%,0%
4′-Biphenylacetyl-D-Phe-Arg-Cys-Trp-NH2 ({Phenylacetyl(4-Ph)}-[dF]RCW-NH2; not fully specified; printed as 4′-Biphenylacetyl-D-Phe-Arg-Cys-Trp-NH2),1%,0%,50%,0%
Ac-Ala-His-D-Phe-Arg-Cys-Trp-NH2 ({Ac-Ala-H2N}-[dF]RCW-NH2; not fully specified; printed as Ac-Ala-His-D-Phe-Arg-Cys-Trp-NH2),61%,0%,9%,0%
3′-Br-Phenylacetyl-His-Gly-D-Phe(4′-Cl)Trp-Cys-NH2,33%,2%,16%,14%
3′-(4′-Hydroxyphenyl)propionyl-D-Phe-Arg-Cys-Trp-NH2 (Desaminotyrosyl-[dF]RCW-NH2; not fully specified; printed as 3′-(4′-Hydroxyphenyl)propionyl-D-Phe-Arg-Cys-Trp-NH2),7%,0%,14%,0%
3′-Br Phenyl acetyl-Arg-Arg-D-Phe(4′-Cl)-Cys-Bip-NH2,69%,78%,86%,60%
[dDip][dF]RCW-NH2,58%,2%,53%,8%
[dDip][dF]RWC-NH2,23%,34%,8%,0%
Hept-Ser(Bzl)-D-Phe(4′-Cl)-Arg-D-Trp-Cys-NH2,24%,62%,79%,37%
